The source of these data is a melting point compilation (Tetko et al.; mined from patent text by program, amines drawn as free bases though some values may be those of a salt).

For orientation: melting point means the temperature of the solid-liquid transition. The compound `O=C(C1CC1)N1CCN(C(=O)c2cc(C(F)(F)F)cc(C(F)(F)F)c2)[C@H](Cc2c[nH]c3ccccc23)C1` displayed a melting point of 109 to 114 °C.
`O=C(O)CCC(=O)c1ccc(CCNS(=O)(=O)CCc2ccc(Cl)cc2)cc1` showed a melting point of 112 °C.
The compound `CON=C(C(=O)OC)c1ccccc1Oc1ccccc1` displayed a melting point of 109 to 110 °C.
Regarding `Cc1ccccc1NC(=O)Nc1ccc(N)cc1`, the melting point is above 300 °C.
Next, `O=C(Cc1ccccc1[N+](=O)[O-])CN1C(=O)c2ccccc2C1=O`: 179 to 182 °C.
On to `CCCCn1ccc(-c2ccc(Oc3cc(C)nc(C)c3)c(F)c2)c(C#N)c1=O`, for which the melting point turned out to be 205 °C.
Regarding `CCCCCCCC(=O)N(C)Cc1cccc(-c2ccc(C=CC(=O)O)s2)c1`, the melting point is 102 to 104 °C.
With `COC(=O)c1ccc(-c2ccc(-c3cn([C@H]4CN5CCC4CC5)nn3)s2)cc1F`, the melting point was 250 °C.
Next, `COC(=O)C(=C(CBr)CBr)N1CC(N2C(=O)c3ccccc3C2=O)C1=O` (centres undefined): 128 to 131 °C; `CNC(=S)NS(=O)(=O)c1cc2c(cc1C)OCC(NC(=O)c1cc(Cl)ccc1OC)C2` (centres undefined): 207 to 208 °C.
The compound `O=C(c1ccc(F)c(F)c1)N1CCCC(c2noc(-c3ccc[nH]3)n2)C1` (centres undefined) yielded a melting point of 168 °C.
For `C=CCn1c(Cc2ccccc2)c(CC)c(=O)[nH]c1=O` the value was 164 to 165 °C.
Compound `CCSc1nc(N)ccc1[N+](=O)[O-]` gave a melting point of 132 °C.
For `CCCCC(CCCC)(CC(=O)Nc1cccc(OCc2ccc3ccc(F)cc3n2)c1)C(=O)O` the value was 156 to 157 °C; for `COc1cnc(OC)n2c(N)nnc12`, 232 to 235 °C.
Regarding `N#CCN1C(=O)N(c2ccc(C#N)c(C(F)(F)F)c2)C(=O)C1(CO)CO`, the melting point was in the range of 157 to 158 °C.
With `CCCCCCCCCCCCc1nnc(C(C(=O)Nc2c(OC)cc(OC)cc2OC)c2ccccc2)o1` (centres undefined), the melting point is 120 to 121 °C.
`CCc1c(-c2ccncn2)ssc1=S` returned a melting point of 100 to 102 °C.
Compound `COC(=O)CCCCOc1cc2c(c(Cl)c1Cl)C(=O)C(C)(C1CCCC1)C2` (centres undefined) returned a melting point of 83 to 86 °C.
For `CCOC(=O)C1CCn2c(cc3ccccc32)C1` (centres undefined) the value was 70 to 72 °C.
Next, `O=C(OCc1ccccc1)c1ccc(C#Cc2ccccc2)cc1OCc1ccccc1`: 98 to 100 °C; `CC(C)(C)c1cc(C(=O)Cl)cc(C(C)(C)C)c1O`: 90 to 93 °C.
In the case of `CCOC(=O)N(c1ccccc1)c1cc(Cl)ccc1N`, the melting point was in the range of 98 to 101 °C.
`CCCCCCCCCCCCCCCCCCS(=O)(=O)N[C@H]1CCCNC(=O)C1` returned a melting point of 99 to 100 °C.
`O=C(O)C(c1ccccc1)C1CCN(c2ccc([N+](=O)[O-])cc2)CC1` (centres undefined) showed a melting point of 216 °C.
Next, `N#CC(Cc1c[nH]cn1)(c1ccc(Cl)cc1)c1cccc(Cl)c1` (centres undefined): 138 to 140 °C; `O=C(O)c1cc(C(=O)C2CCCCC2)cc2c1OC(c1ccccc1)(c1ccccc1)O2`: 212 to 214 °C; `COc1ccccc1[C@H]1CC[C@@H](c2ccccc2)N1C(=O)CNC(=O)Nc1cccc(CC(=O)O)c1` (racemic): 140 °C.
Compound `CCCCCCCCCCc1cnc(-c2ccc3c(c2)C(=O)C(CCCCCCCC)C3)nc1` (centres undefined) had a melting point of 83 °C.
Next, `NS(=O)(=O)c1cccc(C=NO)c1`: 107 to 108 °C; `Nc1ccc2oc3ccc(OC(F)F)c(C(=O)Nc4c(Cl)cncc4Cl)c3c2c1`: above 270 °C; `CCOC(=O)c1cccnc1NC(=O)Cc1cccc(Oc2ccccc2)c1`: 90 to 91 °C.
The compound `N#Cc1c(Cc2ccccc2)nn(C2CCCC2)c1NC(=O)Cc1ccccc1` showed a melting point of 166 to 168 °C.
In the case of `COc1cc(OC)c(OC)cc1CN1CCc2cc(OCc3ccccc3)c(OC)cc2C1`, the melting point was in the range of 110 to 111 °C.
